From ChEMBL document CHEMBL1201862, “PubChem BioAssay data set” (2004)
The source made the active and inactive calls.

How the values were obtained:
Major prion protein = Major prion protein (Homo sapiens, UniProt P04156); type: functional, cell-based
cells [1] = experiment: cells
BJ [2] = experiment: cells; type: functional, cell-based; conditions: Homo sapiens
[3] = LGR2 antagonists, dose response, cell-based, HEK293, CRE-luciferase reporter, cherry pick, set 2 (AID 743343); type: functional;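 note: transfected cells were stimulated with diluted bursicon conditioned medium after compound addition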
[4] = cytotoxicity toward DRD oncogenic fibroblasts, dose response, cell-based, non-viral oncogenic, luminescence (AID 1934); type: functional; conditions: Homo sapiens
[5] = A549 cell cytotoxicity, dose response, cytotoxicity control, plate reader, cherry-pick, antagonist series (AID 743412); type: functional, cell-based
[6] = HepG2 cell cytotoxicity, dose response, cytotoxicity control, plate reader, cherry-pick, antagonist series (AID 743416); type: functional, cell-based
[7] = MC4R antagonists, dose response, counter-screen for LGR2 antagonist project, cell-based, plate reader, cherry pick (AID 743444); type: functional;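 note: transfected HEK 293 cells stimulated with alpha-MSH peptide; potency of inhibitors of the alpha-MSH evoked signal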
BJ [8] = experiment: cytotoxicity toward BJ-TERT fibroblasts, dose response, cell-based, RAS-independent, luminescence (AID 1933); type: functional; conditions: Homo sapiens
[9] = inhibitors of SNCA 5'UTR-driven reporter translation, confirmation, H4 neuroglioma cells, luminescence (AID 1988); type: functional, cell-based
[10] = HEK293 cell cytotoxicity, dose response, cytotoxicity control, plate reader, cherry-picked samples (AID 743446); type: functional, cell-based
[11] = Luminescence Cell-Based Dose Response HTS to Identify Inhibitors of 5'UTR Stem-Loop Driven Prion Protein mRNA Translation in H4 Neuroglioblastoma Cells. [Related pubchem assays: 1827 (Project Summary), 1813 (Primary HTS)]; type: functional
BJ [12] = experiment: cytotoxicity toward BJ-TERT-LT-ST fibroblasts, dose response, cell-based, RAS-independent, luminescence (AID 1935); type: functional; conditions: Homo sapiens;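 note: BJ fibroblasts immortalized with TERT plus LT and ST oncogenes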
[13] = inhibitors of HIV Env-driven cell fusion, dose response, cherry-pick (AID 652057); type: functional, cell-based
[14] = CEM21 lymphoblast cell cytotoxicity, dose response, cytotoxicity control for viral fusion inhibitor project, CellTiter-Glo luminescence, cherry-picked (AID 652042); type: functional, cell-based;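 note: potency for signal decrease meaning cytotoxicity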
[15] = off-target signal loss in HeLa-CEM21 co-culture – HeLa F-luc CTL cells, cherry-picked, counter-screen for HIV-1 Env fusion inhibitor project, dose response (AID 652040); type: functional, cell-based;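 note: potency for signal decrease marking cytotoxic or nonspecific inhibition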
[16] = molecular target: SWI/SNF-related matrix-associated actin-dependent regulator of chromatin subfamily A member 2 (Homo sapiens, UniProt P51531); experiment: Luminescence-based cell-based high throughput dose response assay to identify activators of the function of SWI/SNF related, matrix associated, actin dependent regulator of chromatin, subfamily a, member 2 (SMARCA2, BRM).; type: functional
[17] = molecular target: Photoreceptor-specific nuclear receptor (Homo sapiens, UniProt Q9Y5X4); type: functional, cell-based;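 note: CHO-S cells with Gal4-NCOR and VP16-NR2E3 two-hybrid luciferase reporter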
[18] = Counterscreen for activators of the function of SWI/SNF related, matrix associated, actin dependent regulator of chromatin, subfamily a, member 2 (SMARCA2, BRM): Luminescence-based cell-based high throughput dose response assay to identify non-selective compounds using the VP16 reporter assay.; type: functional
Estrogen receptor beta = Estrogen receptor beta (Homo sapiens, UniProt Q92731);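 note: recombinant ER-beta bound to coactivator SRC1 peptide in presence of estradiol agonist; inhibitors block coactivator peptide binding and lower the FRET signal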
[19] = inhibitors of intracellular T. cruzi replication, confirmation, NIH3T3 host cells, beta-gal luminescence (AID 2044); type: functional, cell-based;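 note: intracellular parasites grown in NIH/3T3 mouse fibroblasts as host cells; luminescent beta-galactosidase reporter signal from transgenic T. cruzi replicating inside host cells; inhibitors lower the luminescence signal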
cells [20] = experiment: cells; remark: listed apart in the source
[21] = cytotoxicity toward NIH3T3 fibroblasts, dose response, counter-screen, cell-based, ATP luminescence, mouse fibroblasts (AID 2010); type: functional;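 note: cells exposed to compound for about 90 hours before reading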
[22] = molecular target: Induced myeloid leukemia cell differentiation protein Mcl-1 (Homo sapiens, UniProt Q07820); experiment: MCL1-BIM BH3 interaction inhibitors, dose response, biochemical, fluorescence polarization, BIM-BH3 peptide, 1536-well (AID 2217)
Bcl-2-like protein 1 = Bcl-2-like protein 1 (Homo sapiens, UniProt Q07817); experiment: BCL-XL inhibitors, dose response, selectivity assay for MCL1 inhibitor project, biochemical, fluorescence polarization, 1536-well (AID 2218)
H9c2 = experiment: cells; type: functional, cell-based; conditions: Rattus norvegicus, H9c2, Myocardium;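 note: confirmatory concentration-response retest of ultra-high-throughput screening hits for modulation of myocardial damage; cell death induced by hydrogen peroxide oxidative stress; compound pretreatment for 60 min then peroxide exposure for 2 h; potency is for protecting the cells against peroxide damage rather than for killing them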
[23] = molecular target: T1, Heat shock factor protein 1 (Mus musculus, UniProt P38532); experiment: inhibition of MG132-induced HSE-luciferase signal, confirmation, cell-based, NIH3T3, luminescence, dose retest (AID 2382); type: functional;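 note: NIH3T3 fibroblasts with HSF1-driven luciferase reporter stressed by proteasome inhibitor MG132; luminescence from HSF1-driven luciferase expression after 8 hours of MG132 stress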
T1 sequence (P38532 whole entry): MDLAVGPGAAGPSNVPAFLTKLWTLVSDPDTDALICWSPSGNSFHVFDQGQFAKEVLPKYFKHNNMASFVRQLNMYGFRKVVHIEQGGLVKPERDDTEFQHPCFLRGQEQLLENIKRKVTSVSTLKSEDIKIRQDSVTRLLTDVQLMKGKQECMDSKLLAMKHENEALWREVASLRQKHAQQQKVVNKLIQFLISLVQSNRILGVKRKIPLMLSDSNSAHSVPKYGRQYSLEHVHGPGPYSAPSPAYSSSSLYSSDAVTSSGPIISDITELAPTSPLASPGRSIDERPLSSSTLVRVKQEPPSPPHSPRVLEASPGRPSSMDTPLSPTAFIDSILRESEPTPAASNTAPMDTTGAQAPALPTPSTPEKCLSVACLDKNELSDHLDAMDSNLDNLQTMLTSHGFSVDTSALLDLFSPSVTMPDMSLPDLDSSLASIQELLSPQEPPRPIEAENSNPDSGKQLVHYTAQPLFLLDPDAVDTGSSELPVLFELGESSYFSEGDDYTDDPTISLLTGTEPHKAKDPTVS

[24] = molecular target: T2, COUP transcription factor 2 (Homo sapiens, UniProt P24468); experiment: Luminescence-based cell-based high throughput dose response assay to identify inhibitors of COUP-TFII (NR2F2).; type: functional;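 note: HEK293 cells transiently cotransfected with COUP-TFII expression vector and reporter; luciferase reporter luminescence driven by COUP-TFII from the pX2-168 reporter plasmid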
T2 sequence (P24468 whole entry): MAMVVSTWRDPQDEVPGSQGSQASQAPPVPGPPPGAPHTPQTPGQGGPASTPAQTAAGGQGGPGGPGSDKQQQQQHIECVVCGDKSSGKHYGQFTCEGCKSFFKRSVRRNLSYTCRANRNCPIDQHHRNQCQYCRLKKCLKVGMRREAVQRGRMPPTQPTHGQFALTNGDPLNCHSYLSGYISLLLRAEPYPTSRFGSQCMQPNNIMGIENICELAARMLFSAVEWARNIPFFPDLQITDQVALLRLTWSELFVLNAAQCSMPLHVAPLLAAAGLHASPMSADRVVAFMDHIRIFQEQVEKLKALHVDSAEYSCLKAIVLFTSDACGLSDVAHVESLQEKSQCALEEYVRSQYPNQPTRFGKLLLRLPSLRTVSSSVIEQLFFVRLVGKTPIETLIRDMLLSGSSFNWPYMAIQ

Vero = experiment: Vero cell toxicity, dose response, cytotoxicity control, plate reader, cherry-pick samples (AID 687020); type: functional, cell-based; conditions: Chlorocebus sabaeus

CC(=O)c1sccc1NC(=O)c1ccccc1C(=O)O
IC50 (Major prion protein): 3.09 µM (active)
IC50 (cells [1]): > 138 µM (inactive)

Cc1cccc(NC(=O)c2onc3c2CCCC3)n1
EC50 (BJ [2]): 15 µM (active)
AC50 [3]: 3.23 µM (active)
EC50 [4]: 13.3 µM (active)
AC50 [5]: 19.6 µM (active)
AC50 [6]: 19.4 µM (active)
AC50 [7]: 5.51 µM (active)
EC50 (BJ [8]): 18 µM (active)
EC50 [9]: 6.78 µM (active)
AC50 [10]: 15.9 µM (active)
EC50 [11]: 8.8 µM (active)
EC50 (BJ [12]): > 150 µM (inconclusive)

Cc1cccc(C)c1N(CC(O)Cn1c2ccccc2c2ccccc21)S(C)(=O)=O (stereo not drawn)
AC50 [13]: 17.1 µM (active)
AC50 [14]: 60.4 µM (active)
AC50 [15]: > 70 µM (inactive)

COc1ccc2c(CC(=O)Nc3ncc(C)s3)coc2c1
EC50 [16]: > 91.2 µM (inactive)
IC50 [17]: 1.11 µM (active)
EC50 [18]: > 91.2 µM (inactive)

O=c1[nH]c2ccccc2c(=O)n1Cc1ccco1
IC50 (Estrogen receptor beta): > 50 µM (not active)

CCc1ccc(CN2CCCC(CNC(=O)c3cccc(OC)c3OC)C2)cc1 (stereo not drawn)
EC50 [19]: < 0.1 µM (active)
EC50 (cells [20]): 0.37 µM (active)
EC50 [21]: > 60 µM (not active)

CNc1ccccc(C(=O)/C=C/c2ccccc2OC)c1=O
IC50 [22]: > 109 µM (not active)
IC50 (Bcl-2-like protein 1): > 109 µM (not active)
IC50 (H9c2): 11.5 µM (active)

Cc1sc(NC(=O)c2ccco2)c(C(c2cccnc2)N2CCN(c3ccc(F)cc3)CC2)c1C (stereo not drawn)
EC50 [19]: < 0.1 µM (active)
EC50 (cells [20]): 0.385 µM (active)
EC50 [21]: > 60 µM (not active)

COCCn1c(C)c(C)c2c(NCCc3ccccc3)ncnc21
EC50 [23]: < 0.16 µM (active)
AC50 [3]: 6.87 µM (active)
AC50 [7]: 9.75 µM (active)
IC50 [24]: 40.1 µM (inactive)
AC50 [10]: > 52 µM (inactive)

NC(=O)c1cc(Cl)cn(-c2ccccc2)c1=O
AC50 (Vero): 33.7 µM (active)

COc1ccc(CN2CCCC(CO)(Cc3cccc(Cl)c3)C2)cc1OC (stereo not drawn)
EC50 [19]: < 0.1 µM (active)
EC50 (cells [20]): 0.352 µM (active)
EC50 [21]: > 30 µM (not active)
